Assay [1] addresses T1, human serotonin 5-HT1b receptor (Homo sapiens, UniProt P28222).
T1 construct: expressed in transfected cells; host or cells: CHO-K1 (membranes)
In words: GTPγS assay, recombinant CHO-K1 membranes. It counts as biochemical. The note with it: human recombinant cell lines; FIG. 1. As to the method:
Eltoprazine was tested for activity on the human serotonin 5-HT1a and 5-HT1b receptors using a GTPγS assay. Recombinant membranes obtained from CHO-K1 cells expressing either the 5-HT1a or 5-HT1b receptors were mixed with GDP (volume:volume) and incubated for at least 15 min on ice. In parallel, GTPγ[35S] was mixed with the beads (volume:volume) just before starting the reaction. The following reagents were successively added in the wells of an Optiplate (Perkin Elmer): 50 μl of test compound, 20 μl of the membranes:GDP mix, 10 μl of assay buffer (for agonist testing) and 20 μl of the GTPγ[35S]:beads mix. The plates were covered with a top seal, shaken on an orbital shaker for 2 min, and then incubated for 1 h at room temperature. Then the plates were centrifuged for 10 min at 2000 rpm, incubated at room temperature 1 h and counted for 1 min/well with a PerkinElmer TopCount reader.

Assay [2] concerns Sprague-Dawley rats. As to the kind of experiment: Elevated plus maze. It counts as in vivo. Particulars: doses of 0.3125 and 1.25 mg/kg s.c.; FIG. 6. The method, then: For contextual fear conditioning, open field, fear potentiated startle and elevate plus maze, experimentally naive adult male Sprague-Dawley rats (250-300 g; Janvier, France) were housed in groups of four per cage. Colony room temperature and humidity were maintained respectively at 20±1° C. and 60±3%. Food and water were available ad libitum and the animals were kept under an alternating 12 h/12 h day-night cycle (lights on at 07.00) for at least 6 days before the experiments were started. All experiments were conducted during the light period of the day-night cycle. […]
The elevated plus maze, made from black polypropylene, consists of two open arms (50.8 cm×10.2 cm surrounded by 1.3 cm walls) and two enclosed arms (50.8×10.2 cm and 40.6 cm high walls), which extended form central platform (10.2×10.2 cm). […] Breaks of photo beam are recorded and analysed automatically using an IBM-PC running MED-PC software version IV (Med Associates). […] During the following 5 min period the number of entries into closed and open arms as well as time spent in each type of arm is recorded. An arm entry is recorded when all four paws entering the arm. The obtained results are expressed as mean±S.E.M. percent entries or percent time spent in open arms. […]
Percent of time spent in open arm are taken for statistical analysis. Data are analysed by one-way ANOVA followed by Dunnett's test.

The subject of assay [3] is 5-HT2c (initially designated 5-HT1c). The note with it: Schipper et al. 1990; cited from earlier work.
The subject of another assay is Wistar rats. As to the kind of experiment: Shock-suppressed drinking (Vogel) test. It counts as in vivo. The note with it: acute s.c., 30 min before the test; not statistically significant; FIG. 7. As to the method: (§1) For contextual fear conditioning, open field, fear potentiated startle and elevate plus maze, experimentally naive adult male Sprague-Dawley rats (250-300 g; Janvier, France) were housed in groups of four per cage. Colony room temperature and humidity were maintained respectively at 20±1° C. and 60±3%. Food and water were available ad libitum and the animals were kept under an alternating 12 h/12 h day-night cycle (lights on at 07.00) for at least 6 days before the experiments were started. All experiments were conducted during the light period of the day-night cycle. For the Vogel test, male experimentally naive Wistar rats (180-220 g, State Breeding Farm “Rappolovo”, St. Petersburg, Russia; N=109) were used. Each animal was used only once.
(§2) Eltoprazine hydrochloride was dissolved in sterile water. Administration of eltoprazine or vehicle (sterile water) was done s.c. (0.078 to 1.25 mg/kg) once, 60 minutes (30 min in the Vogel test) prior to start of the behavioural assay.
The apparatus consisted of 4 identical standard operant chambers with grid metal floor. Water bottle spout was protruded through the wall and connected to a shock device. […] Latency to start drinking was registered, and total drinking time and the licks number were recorded during 5 min timed from the first lick of the bottle spout. […]

Assay [4] has as its system Sprague-Dawley rats. As to the kind of experiment: Fear potentiated startle. It counts as in vivo. The note with it: acute treatment. As to the method:
as §1, §2

For assay [5] the following is noted: Rodgers et al., 1992; Rocha et al., 1994; cited from earlier work.
Assay [6] relates to Sprague-Dawley rats. In words: Contextual fear conditioning. It counts as in vivo. Particulars: acute s.c. 0.078 to 1.25 mg/kg, 60 min before the test; FIG. 4. As to the method: as §1
Eltoprazine hydrochloride was dissolved in sterile water. […]
For training and testing, subjects were placed in test cages (30 cm wide, 29 cm high and 25 cm deep) equipped with a grid floor consisting of 18 stainless steel bars (3 mm ID). […] 24 h after conditioning, subjects are placed back in the test cages and freezing is recorded for a period of 5 min. […]
Percent of freezing during the 5 min expression test on day 2 is taken for statistical analysis. Data are analysed by one-way ANOVA on ranks followed by rank sum tests.

Molecules are shown by their SMILES. “Also recorded” adds a separate entry of the source.

T1 sequence (P28222 whole entry): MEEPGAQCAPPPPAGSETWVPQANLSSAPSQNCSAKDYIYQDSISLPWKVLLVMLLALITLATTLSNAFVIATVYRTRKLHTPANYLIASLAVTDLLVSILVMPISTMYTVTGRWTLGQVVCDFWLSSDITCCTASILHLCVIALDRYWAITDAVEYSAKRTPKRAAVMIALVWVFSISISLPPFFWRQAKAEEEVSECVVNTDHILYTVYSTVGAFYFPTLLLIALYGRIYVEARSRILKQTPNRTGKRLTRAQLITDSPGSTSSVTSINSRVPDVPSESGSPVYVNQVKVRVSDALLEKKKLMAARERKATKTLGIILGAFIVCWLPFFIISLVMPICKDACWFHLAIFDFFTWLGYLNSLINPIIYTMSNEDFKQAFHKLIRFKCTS

Turning to `c1cc2c(c(N3CCNCC3)c1)OCCO2` [eltoprazine, 1-(2,3-dihydro-1,4-benzodioxin-5-yl)piperazine], the “functional activity at 5-HT1b receptor” value in assay [1] is on record as “partial agonistic action”. For the same compound, the “time spent in the open arms of the elevated plus maze” value in the assay with Sprague-Dawley rats [2] is “reduced the time spent in the open arms; also recorded: anxiogenic-like effect”. Further, the “effect on 5-HT2c” value in assay [3] is given as “antagonistic”. In addition, the “number of accepted punishments (shocks received) in the Vogel test” value in the assay with Wistar rats was “tendency to increase; also recorded: trend for anxiolytic activity”. Besides, the “effect in fear potentiated startle, first experiment” value in the assay on Sprague-Dawley rats [4] is “anxiolytic-like effect”. Also, the “effect in fear potentiated startle, repetition study” value in the assay on Sprague-Dawley rats [4] (same doses) was “strong trend”. The “effect in the elevated plus maze, previous data” value in assay [5] is given as “anxiogenic-like effects”. Further, the “time spent freezing during re-exposure to the conditioning context” value with Sprague-Dawley rats [6] is given as “dose-dependently induced anxiolytic-like effects; also recorded: very strong anxiolytic effect”.
